Laboratory results reported in ChEMBL document CHEMBL3997794, “Design and synthesis of benzodiazepine analogs as isoform-selective human lysine deacetylase inhibitors” (Eur J Med Chem, 2017).

Key:
Histone deacetylase 1 [1] = target: T1, Histone deacetylase 1 (Homo sapiens, UniProt Q13547); assay: Inhibition of human KDAC1 at 30 uM using substrate A after 60 mins by fluorescence assay relative to control
Histone deacetylase 1 [2] = target: T1, Histone deacetylase 1; assay: Inhibition of human KDAC1 using substrate A after 60 mins by fluorescence assay
Histone deacetylase 3 [3] = target: T2, Histone deacetylase 3 (Homo sapiens, UniProt O15379); assay: Inhibition of human KDAC3 at 30 uM using FITC-labeled p53 acetylated peptide as substrate after 60 mins by fluorescence assay relative to control
[4] = target: T3, Histone deacetylase 8 (Homo sapiens) (UniProt Q9BY41); assay: Inhibition of human KDAC8 at 30 uM after 60 mins by fluorescence assay relative to control
T3 sequence (whole entry): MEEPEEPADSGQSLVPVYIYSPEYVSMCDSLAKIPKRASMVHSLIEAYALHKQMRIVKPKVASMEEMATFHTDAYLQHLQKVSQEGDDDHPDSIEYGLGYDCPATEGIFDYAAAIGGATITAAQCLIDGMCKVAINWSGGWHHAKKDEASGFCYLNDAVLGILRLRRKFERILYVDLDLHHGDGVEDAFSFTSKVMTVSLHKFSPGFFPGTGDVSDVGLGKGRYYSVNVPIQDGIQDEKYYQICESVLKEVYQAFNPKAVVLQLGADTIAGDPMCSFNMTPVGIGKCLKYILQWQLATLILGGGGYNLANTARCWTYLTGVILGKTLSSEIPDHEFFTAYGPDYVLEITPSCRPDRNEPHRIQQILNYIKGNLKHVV

[5] = target: T4, Protein deacetylase HDAC6 (Homo sapiens, UniProt Q9UBN7); assay: Inhibition of human KDAC6 using FITC-labeled histone H4 acetylated peptide as substrate after 60 mins by fluorescence assay
T4 sequence (Q9UBN7 whole entry): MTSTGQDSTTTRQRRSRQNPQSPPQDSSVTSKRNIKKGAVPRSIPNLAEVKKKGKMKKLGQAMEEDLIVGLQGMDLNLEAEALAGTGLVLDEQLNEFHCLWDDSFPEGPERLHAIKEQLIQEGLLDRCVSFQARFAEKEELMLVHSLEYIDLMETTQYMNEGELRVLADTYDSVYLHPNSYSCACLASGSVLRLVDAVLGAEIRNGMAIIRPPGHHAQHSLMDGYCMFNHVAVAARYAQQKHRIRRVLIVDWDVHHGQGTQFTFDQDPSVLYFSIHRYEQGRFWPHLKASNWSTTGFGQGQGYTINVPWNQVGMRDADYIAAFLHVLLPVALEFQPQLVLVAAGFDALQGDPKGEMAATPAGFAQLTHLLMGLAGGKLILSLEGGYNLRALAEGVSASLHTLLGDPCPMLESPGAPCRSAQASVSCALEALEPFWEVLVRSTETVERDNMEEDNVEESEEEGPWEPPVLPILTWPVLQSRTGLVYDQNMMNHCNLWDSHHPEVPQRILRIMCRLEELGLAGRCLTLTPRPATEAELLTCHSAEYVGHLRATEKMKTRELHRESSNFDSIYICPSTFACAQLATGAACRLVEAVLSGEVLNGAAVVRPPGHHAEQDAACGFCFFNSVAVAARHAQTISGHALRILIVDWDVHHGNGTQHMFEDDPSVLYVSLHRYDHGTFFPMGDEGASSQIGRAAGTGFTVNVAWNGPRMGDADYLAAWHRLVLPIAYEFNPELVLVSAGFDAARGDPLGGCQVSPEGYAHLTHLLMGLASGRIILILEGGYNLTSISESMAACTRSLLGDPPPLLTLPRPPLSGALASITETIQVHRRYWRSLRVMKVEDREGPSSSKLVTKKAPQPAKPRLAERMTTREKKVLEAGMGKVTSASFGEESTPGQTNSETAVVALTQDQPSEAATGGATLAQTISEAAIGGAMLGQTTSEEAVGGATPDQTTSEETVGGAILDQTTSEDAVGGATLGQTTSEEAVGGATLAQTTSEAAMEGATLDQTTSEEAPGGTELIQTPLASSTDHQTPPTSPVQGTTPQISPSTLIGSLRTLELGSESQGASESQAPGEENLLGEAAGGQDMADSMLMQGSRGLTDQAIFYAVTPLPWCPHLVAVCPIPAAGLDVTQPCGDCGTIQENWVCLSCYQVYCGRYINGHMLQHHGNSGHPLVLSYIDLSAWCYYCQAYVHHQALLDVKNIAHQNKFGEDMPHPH

Histone deacetylase 8 = target: T5, Histone deacetylase 8 (Homo sapiens, UniProt Q9BY41); assay: Inhibition of human KDAC8 after 60 mins by fluorescence assay
T5 sequence (Q9BY41 whole entry): T3 sequence (whole entry)

[6] = target: T6, Protein deacetylase HDAC6 (Homo sapiens) (UniProt Q9UBN7); conditions: at 30 µM
T6 sequence (whole entry): T4 sequence (Q9UBN7 whole entry)
Description: Inhibition of human KDAC6 at 30 uM using FITC-labeled histone H4 acetylated peptide as substrate after 60 mins by fluorescence assay relative to control

Histone deacetylase 3 [7] = target: T2, Histone deacetylase 3; assay: Inhibition of human KDAC3 using FITC-labeled p53 acetylated peptide as substrate after 60 mins by fluorescence assay

T1 sequence (Q13547 whole entry): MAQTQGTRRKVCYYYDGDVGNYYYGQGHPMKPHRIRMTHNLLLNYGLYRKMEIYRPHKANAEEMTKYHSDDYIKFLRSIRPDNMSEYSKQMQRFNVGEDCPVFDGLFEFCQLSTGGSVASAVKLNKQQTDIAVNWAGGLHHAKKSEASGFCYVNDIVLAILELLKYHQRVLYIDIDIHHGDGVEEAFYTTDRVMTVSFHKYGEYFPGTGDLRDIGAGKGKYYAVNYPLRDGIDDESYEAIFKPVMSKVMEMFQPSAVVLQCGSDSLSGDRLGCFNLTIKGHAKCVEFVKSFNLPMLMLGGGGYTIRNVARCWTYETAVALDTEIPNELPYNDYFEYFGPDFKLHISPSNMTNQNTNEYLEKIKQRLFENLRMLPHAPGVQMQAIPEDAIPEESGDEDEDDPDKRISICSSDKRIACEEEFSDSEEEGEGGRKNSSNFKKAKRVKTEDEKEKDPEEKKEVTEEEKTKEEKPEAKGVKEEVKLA
T2 sequence (O15379 whole entry): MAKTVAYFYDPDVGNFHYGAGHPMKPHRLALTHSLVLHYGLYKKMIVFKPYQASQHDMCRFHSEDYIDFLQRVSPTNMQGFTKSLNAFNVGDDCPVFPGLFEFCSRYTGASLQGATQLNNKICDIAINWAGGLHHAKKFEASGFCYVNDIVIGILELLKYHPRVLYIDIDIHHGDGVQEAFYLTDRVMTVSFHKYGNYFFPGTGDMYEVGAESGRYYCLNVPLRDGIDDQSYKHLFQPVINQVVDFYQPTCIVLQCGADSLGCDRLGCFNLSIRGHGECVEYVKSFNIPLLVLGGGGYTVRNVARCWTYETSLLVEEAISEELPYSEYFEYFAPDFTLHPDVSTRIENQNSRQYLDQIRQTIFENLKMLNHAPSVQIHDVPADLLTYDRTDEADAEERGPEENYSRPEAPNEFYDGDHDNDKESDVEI

Row | SMILES | inhibition (Histone deacetylase 1 [1]) | IC50 (Histone deacetylase 1 [2]) | inhibition (Histone deacetylase 3 [3]) | inhibition [4] | IC50 [5] | IC50 (Histone deacetylase 8) | inhibition [6] | IC50 (Histone deacetylase 3 [7])
1 | CC(C)[C@@H]1N=C(c2ccccc2)c2ccccc2N(CCCCC(=O)O)C1=O | 2.24% | > 30 µM | 0% | 3.18% | > 30 µM | > 30 µM | 0% | > 30 µM
2 | CC(C)(C)OC[C@@H]1N=C(c2ccccc2)c2ccccc2N(CCCCC(=O)O)C1=O | 3.74% | > 30 µM | 0% | 5.87% | > 30 µM | > 30 µM | 0% | > 30 µM
3 | CC(C)(C)SC[C@H]1N=C(c2ccccc2)c2ccccc2N(CCCCC(=O)O)C1=O | 12.1% | > 30 µM | 0% | 8.31% | > 30 µM | > 30 µM | 2.08% | > 30 µM
4 | CC(C)(C)SC[C@H]1N=C(c2ccccc2)c2ccccc2N(CCCCC(=O)NO)C1=O | 79.9% | 7.99 µM | 98.8% | 44.6% | 5.37 µM | > 30 µM | 88% | 0.75 µM
5 | CC(C)(C)Oc1ccc(C[C@@H]2N=C(c3ccccc3)c3ccccc3NC2=O)cc1 | 4.79% | > 30 µM | 0% | 0% | > 30 µM | > 30 µM | 0% | > 30 µM
6 | CC(C)(C)OC[C@@H]1N=C(c2ccccc2)c2ccccc2N(CCCCC(=O)NO)C1=O | 73.7% | 9 µM | 94.6% | 26.9% | 5.05 µM | > 30 µM | 85.1% | 1.21 µM
7 | O=C(CCCCN1C(=O)[C@H](CO)N=C(c2ccccc2)c2ccccc21)NO | 41% | > 30 µM | 85.9% | 19.9% | 6.35 µM | > 30 µM | 74.4% | 4.94 µM
8 | CC(C)(C)OC(=O)C[C@@H]1N=C(c2ccccc2)c2ccccc2N(CCCCC(=O)O)C1=O | 0% | > 30 µM | 2.62% | 0% | > 30 µM | > 30 µM | 0% | > 30 µM
9 | O=C(C[C@@H]1N=C(c2ccccc2)c2ccccc2NC1=O)NC(c1ccccc1)(c1ccccc1)c1ccccc1 | 4.31% | > 30 µM | 0% | 0% | > 30 µM | > 30 µM | 0% | > 30 µM
10 | O=C(CCCCN1C(=O)[C@H](Cc2ccccc2)N=C(c2ccccc2)c2ccccc21)NO | 75% | 8.51 µM | 97% | 68.6% | 1.98 µM | 12.7 µM | 95.1% | 0.49 µM
11 | O=C1CN=C(c2ccccc2)c2ccccc2N1 [RO-052921] | 7.95% | > 30 µM | 3.45% | 2.82% | > 30 µM | > 30 µM | 0% | > 30 µM
12 | O=C(CCCCN1C(=O)[C@H](Cc2cncn2C(c2ccccc2)(c2ccccc2)c2ccccc2)N=C(c2ccccc2)c2ccccc21)NO | 22.3% | > 30 µM | 93.4% | 1.38% | 4.74 µM | > 30 µM | 89.9% | 2.55 µM
13 | C[C@@H](OCc1ccccc1)[C@@H]1N=C(c2ccccc2)c2ccccc2N(CCCCC(=O)NO)C1=O | 82.4% | 4.55 µM | 97.2% | 50.1% | 2.05 µM | 29.5 µM | 98.1% | 0.91 µM
14 | O=C(CCCCN1C(=O)CN=C(c2ccccc2)c2ccccc21)NO | 88.3% | 3.84 µM | 97.2% | 75.9% | 1.89 µM | 6.72 µM | 94.2% | 0.66 µM
15 | COC(=O)CCCCN1C(=O)[C@H](Cc2cc3ccccc3n2C(=O)OC(C)(C)C)N=C(c2ccccc2)c2ccccc21 | 1.64% | > 30 µM | 0% | 0% | > 30 µM | > 30 µM | 0% | > 30 µM
16 | O=C(CC[C@H]1N=C(c2ccccc2)c2ccccc2NC1=O)NO | 28% | > 30 µM | 29.4% | 9.02% | > 30 µM | > 30 µM | 19% | > 30 µM
17 | CC(C)(C)OC(=O)NCCCC[C@@H]1N=C(c2ccccc2)c2ccccc2N(CCCCC(=O)O)C1=O | 6% | > 30 µM | 0% | -2.29% | > 30 µM | > 30 µM | 0% | > 30 µM
18 | O=C(CCCCN1C(=O)[C@H](Cc2ccc(O)cc2)N=C(c2ccccc2)c2ccccc21)NO | 42.9% | > 30 µM | 86.4% | 14.9% | 8.46 µM | > 30 µM | 78.5% | 5.29 µM
19 | C[C@H](OCc1ccccc1)[C@@H]1N=C(c2ccccc2)c2ccccc2NC1=O | 1.5% | > 30 µM | 2.49% | 9.14% | > 30 µM | > 30 µM | 3.08% | > 30 µM
20 | O=C(CCCCN1C(=O)[C@H](CC(=O)NO)N=C(c2ccccc2)c2ccccc21)NO | 74.7% | 9.99 µM | 77.7% | 10% | > 30 µM | > 30 µM | 42.5% | 10.4 µM
21 | COC(=O)CCCCN1C(=O)[C@H](Cc2cncn2C(c2ccccc2)(c2ccccc2)c2ccccc2)N=C(c2ccccc2)c2ccccc21 | 4.66% | > 30 µM | 0% | 12.1% | > 30 µM | > 30 µM | 5.33% | > 30 µM
22 | COC(=O)CCCCN1C(=O)[C@H](Cc2ccccc2)N=C(c2ccccc2)c2ccccc21 | 1.72% | > 30 µM | 1.85% | 0% | > 30 µM | > 30 µM | 6.49% | > 30 µM
23 | CC(C)(C)OC[C@@H]1N=C(c2ccccc2)c2ccccc2NC1=O | 1.48% | > 30 µM | 0.38% | 0% | > 30 µM | > 30 µM | 2.44% | > 30 µM
24 | C[C@@H](O)[C@@H]1N=C(c2ccccc2)c2ccccc2N(CCCCC(=O)NO)C1=O | 66.5% | 11.2 µM | 94.2% | 40.3% | 11.6 µM | > 30 µM | 70.1% | 1.8 µM
